{"source": "paper PMC11144398", "about": "“Crizotinib inhibits the metabolism of tramadol by non-competitive suppressing the activities of CYP2D1 and CYP3A2” (PeerJ, 2024)", "target": "T1, CYP3A2 (Rattus norvegicus, UniProt P05183)", "T1 construct": "All liver tissue samples were extracted into liver microsomes by homogenization and centrifugation; from tissue; host or cells: liver microsomes of Sprague-Dawley rats (control or dosed with crizotinib)", "T1 sequence (P05183 1-504)": "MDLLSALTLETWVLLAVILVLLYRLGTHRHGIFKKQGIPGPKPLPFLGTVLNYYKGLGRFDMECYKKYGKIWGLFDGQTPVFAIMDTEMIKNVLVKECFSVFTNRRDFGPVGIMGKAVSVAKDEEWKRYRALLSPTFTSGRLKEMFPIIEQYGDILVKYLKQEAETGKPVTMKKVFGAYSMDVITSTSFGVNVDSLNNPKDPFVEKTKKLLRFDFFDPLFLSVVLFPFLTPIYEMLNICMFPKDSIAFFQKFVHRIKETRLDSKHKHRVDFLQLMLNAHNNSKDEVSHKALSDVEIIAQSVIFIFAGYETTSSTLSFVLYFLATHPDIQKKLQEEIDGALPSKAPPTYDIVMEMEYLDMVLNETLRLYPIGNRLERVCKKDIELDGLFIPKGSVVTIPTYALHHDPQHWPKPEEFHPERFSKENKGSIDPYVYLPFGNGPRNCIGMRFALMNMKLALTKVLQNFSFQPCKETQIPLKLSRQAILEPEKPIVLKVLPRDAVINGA", "assay": "Activity of CYP3A2 in liver microsomes of treated rats (midazolam probe)", "type": "in vitro ADME", "conditions": "RLM from crizotinib-treated rats (45 mg/kg); midazolam 10 µM", "procedure": "Nine rats were randomly divided into three groups (n = 3): group E received 0.5% CMC-Na for 7 days; group F received 45 mg/kg crizotinib for 6 days; and group G received 45 mg/kg of crizotinib for 7 days. […] The blood, liver, kidney, and small intestine were harvested within 10 min and flash-frozen in liquid nitrogen before being transferred to −80 °C for later use.\nAll liver tissue samples were extracted into liver microsomes by homogenization and centrifugation, following the same operational steps as previously reported ([Simpson, 2010]). A new incubation system was established, which included 2 µL dextromethorphan or midazolam (the probe substrate of CYP2D1 or CYP3A2), 2 uL RLM (0.2 mg/mL) from different groups, 186 µL 1xPBS buffer, and 10 µL NADPH (1 mM). […] UPLC-MS/MS was used to detect the concentration of dextrorphan and 1-hydroxymidazolam to determine whether the activities of CYP2D1 and CYP3A2 in the liver were affected by crizotinib.", "data": [{"smiles": "C[C@@H](Oc1cc(-c2cnn(C3CCNCC3)c2)cnc1N)c1c(Cl)ccc(F)c1Cl", "note": "[crizotinib]", "values": [{"measurement": "metabolic rate of midazolam (CYP3A2 activity)", "value": "decreased to different extents"}]}]}
